According to paper PMC8689225, “Cardiac ryanodine receptor N-terminal region biosensors identify novel inhibitors via FRET-based high-throughput screening” (The Journal of Biological Chemistry, 2021):

Experiments:
[1] = molecular target: T1, NTR of mouse RyR2 (Mus musculus, UniProt E9Q401); test: Surface plasmon resonance with isolated NTR (His-MBP tag); type: binding
T1 construct: The NTR of mouse RyR2 (residues 1–547) was cloned and expressed as previously described; made in house; host or cells: Escherichia coli Rosetta (DE3) pLacI
T1 sequence (E9Q401 1-547): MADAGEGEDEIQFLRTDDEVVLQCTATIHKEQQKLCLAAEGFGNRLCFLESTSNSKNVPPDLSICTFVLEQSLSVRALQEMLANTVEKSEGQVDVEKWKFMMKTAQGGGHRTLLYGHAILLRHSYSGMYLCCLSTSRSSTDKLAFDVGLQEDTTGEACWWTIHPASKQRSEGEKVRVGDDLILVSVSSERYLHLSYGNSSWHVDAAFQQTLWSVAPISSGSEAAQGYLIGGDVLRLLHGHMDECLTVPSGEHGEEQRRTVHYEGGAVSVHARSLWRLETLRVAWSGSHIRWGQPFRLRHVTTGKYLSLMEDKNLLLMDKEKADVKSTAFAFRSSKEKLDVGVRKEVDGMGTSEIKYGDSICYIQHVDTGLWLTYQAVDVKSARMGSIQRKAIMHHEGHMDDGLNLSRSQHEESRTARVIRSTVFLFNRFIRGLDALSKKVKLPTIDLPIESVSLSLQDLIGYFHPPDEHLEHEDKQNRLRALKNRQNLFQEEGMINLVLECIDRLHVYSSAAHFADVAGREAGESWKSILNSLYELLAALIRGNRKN
Description: The SPR experiments were performed using a BIACORE S200 (GE Healthcare) equipped with a NTA sensor chip. NTR with His and MBP tags (>90% pure based on SDS-PAGE) was immobilized using affinity of the His tag to the sensor surface. The surfaces of the sensor chip were activated with 0.5 mM Ni^2+ solution at a flow rate of 10 μl/min. The NTR at a concentration of 30 μg/ml in 10 mM HEPES, 150 mM KCl, pH 7.4, was immobilized on flow cell 2; flow cell 1 was left blank to serve as a reference surface. To collect kinetic binding data, the hits in the running buffer (10 mM HEPES, 150 mM NaCl, 0.05% P20, pH 7.4, 1% DMSO) were injected over the two flow cells at concentrations of 1.5625, 3.125, 6.25, 12.5, 25, 50, and 100 μM at a flow rate of 30 μl/min and at a temperature of 25 °C. The complex was allowed to associate and dissociate for 60 and 60 s, respectively. The surfaces were regenerated with a 120 s injection of 350 mM EDTA. Data were collected at a rate of 1 Hz. The data were fit using the global data analysis option available within Biacore S200 Evaluation 1.0 software.

[2] = molecular target: T2, RyR2 (Mus musculus, UniProt E9Q401); test: Ca2+ sparks in saponin-permeabilized ventricular cardiomyocytes; type: cell-based
T2 construct: endogenous in cells; host or cells: ventricular cardiomyocytes of male C57BL/6J mice, saponin-permeabilized
T2 sequence (E9Q401 whole entry): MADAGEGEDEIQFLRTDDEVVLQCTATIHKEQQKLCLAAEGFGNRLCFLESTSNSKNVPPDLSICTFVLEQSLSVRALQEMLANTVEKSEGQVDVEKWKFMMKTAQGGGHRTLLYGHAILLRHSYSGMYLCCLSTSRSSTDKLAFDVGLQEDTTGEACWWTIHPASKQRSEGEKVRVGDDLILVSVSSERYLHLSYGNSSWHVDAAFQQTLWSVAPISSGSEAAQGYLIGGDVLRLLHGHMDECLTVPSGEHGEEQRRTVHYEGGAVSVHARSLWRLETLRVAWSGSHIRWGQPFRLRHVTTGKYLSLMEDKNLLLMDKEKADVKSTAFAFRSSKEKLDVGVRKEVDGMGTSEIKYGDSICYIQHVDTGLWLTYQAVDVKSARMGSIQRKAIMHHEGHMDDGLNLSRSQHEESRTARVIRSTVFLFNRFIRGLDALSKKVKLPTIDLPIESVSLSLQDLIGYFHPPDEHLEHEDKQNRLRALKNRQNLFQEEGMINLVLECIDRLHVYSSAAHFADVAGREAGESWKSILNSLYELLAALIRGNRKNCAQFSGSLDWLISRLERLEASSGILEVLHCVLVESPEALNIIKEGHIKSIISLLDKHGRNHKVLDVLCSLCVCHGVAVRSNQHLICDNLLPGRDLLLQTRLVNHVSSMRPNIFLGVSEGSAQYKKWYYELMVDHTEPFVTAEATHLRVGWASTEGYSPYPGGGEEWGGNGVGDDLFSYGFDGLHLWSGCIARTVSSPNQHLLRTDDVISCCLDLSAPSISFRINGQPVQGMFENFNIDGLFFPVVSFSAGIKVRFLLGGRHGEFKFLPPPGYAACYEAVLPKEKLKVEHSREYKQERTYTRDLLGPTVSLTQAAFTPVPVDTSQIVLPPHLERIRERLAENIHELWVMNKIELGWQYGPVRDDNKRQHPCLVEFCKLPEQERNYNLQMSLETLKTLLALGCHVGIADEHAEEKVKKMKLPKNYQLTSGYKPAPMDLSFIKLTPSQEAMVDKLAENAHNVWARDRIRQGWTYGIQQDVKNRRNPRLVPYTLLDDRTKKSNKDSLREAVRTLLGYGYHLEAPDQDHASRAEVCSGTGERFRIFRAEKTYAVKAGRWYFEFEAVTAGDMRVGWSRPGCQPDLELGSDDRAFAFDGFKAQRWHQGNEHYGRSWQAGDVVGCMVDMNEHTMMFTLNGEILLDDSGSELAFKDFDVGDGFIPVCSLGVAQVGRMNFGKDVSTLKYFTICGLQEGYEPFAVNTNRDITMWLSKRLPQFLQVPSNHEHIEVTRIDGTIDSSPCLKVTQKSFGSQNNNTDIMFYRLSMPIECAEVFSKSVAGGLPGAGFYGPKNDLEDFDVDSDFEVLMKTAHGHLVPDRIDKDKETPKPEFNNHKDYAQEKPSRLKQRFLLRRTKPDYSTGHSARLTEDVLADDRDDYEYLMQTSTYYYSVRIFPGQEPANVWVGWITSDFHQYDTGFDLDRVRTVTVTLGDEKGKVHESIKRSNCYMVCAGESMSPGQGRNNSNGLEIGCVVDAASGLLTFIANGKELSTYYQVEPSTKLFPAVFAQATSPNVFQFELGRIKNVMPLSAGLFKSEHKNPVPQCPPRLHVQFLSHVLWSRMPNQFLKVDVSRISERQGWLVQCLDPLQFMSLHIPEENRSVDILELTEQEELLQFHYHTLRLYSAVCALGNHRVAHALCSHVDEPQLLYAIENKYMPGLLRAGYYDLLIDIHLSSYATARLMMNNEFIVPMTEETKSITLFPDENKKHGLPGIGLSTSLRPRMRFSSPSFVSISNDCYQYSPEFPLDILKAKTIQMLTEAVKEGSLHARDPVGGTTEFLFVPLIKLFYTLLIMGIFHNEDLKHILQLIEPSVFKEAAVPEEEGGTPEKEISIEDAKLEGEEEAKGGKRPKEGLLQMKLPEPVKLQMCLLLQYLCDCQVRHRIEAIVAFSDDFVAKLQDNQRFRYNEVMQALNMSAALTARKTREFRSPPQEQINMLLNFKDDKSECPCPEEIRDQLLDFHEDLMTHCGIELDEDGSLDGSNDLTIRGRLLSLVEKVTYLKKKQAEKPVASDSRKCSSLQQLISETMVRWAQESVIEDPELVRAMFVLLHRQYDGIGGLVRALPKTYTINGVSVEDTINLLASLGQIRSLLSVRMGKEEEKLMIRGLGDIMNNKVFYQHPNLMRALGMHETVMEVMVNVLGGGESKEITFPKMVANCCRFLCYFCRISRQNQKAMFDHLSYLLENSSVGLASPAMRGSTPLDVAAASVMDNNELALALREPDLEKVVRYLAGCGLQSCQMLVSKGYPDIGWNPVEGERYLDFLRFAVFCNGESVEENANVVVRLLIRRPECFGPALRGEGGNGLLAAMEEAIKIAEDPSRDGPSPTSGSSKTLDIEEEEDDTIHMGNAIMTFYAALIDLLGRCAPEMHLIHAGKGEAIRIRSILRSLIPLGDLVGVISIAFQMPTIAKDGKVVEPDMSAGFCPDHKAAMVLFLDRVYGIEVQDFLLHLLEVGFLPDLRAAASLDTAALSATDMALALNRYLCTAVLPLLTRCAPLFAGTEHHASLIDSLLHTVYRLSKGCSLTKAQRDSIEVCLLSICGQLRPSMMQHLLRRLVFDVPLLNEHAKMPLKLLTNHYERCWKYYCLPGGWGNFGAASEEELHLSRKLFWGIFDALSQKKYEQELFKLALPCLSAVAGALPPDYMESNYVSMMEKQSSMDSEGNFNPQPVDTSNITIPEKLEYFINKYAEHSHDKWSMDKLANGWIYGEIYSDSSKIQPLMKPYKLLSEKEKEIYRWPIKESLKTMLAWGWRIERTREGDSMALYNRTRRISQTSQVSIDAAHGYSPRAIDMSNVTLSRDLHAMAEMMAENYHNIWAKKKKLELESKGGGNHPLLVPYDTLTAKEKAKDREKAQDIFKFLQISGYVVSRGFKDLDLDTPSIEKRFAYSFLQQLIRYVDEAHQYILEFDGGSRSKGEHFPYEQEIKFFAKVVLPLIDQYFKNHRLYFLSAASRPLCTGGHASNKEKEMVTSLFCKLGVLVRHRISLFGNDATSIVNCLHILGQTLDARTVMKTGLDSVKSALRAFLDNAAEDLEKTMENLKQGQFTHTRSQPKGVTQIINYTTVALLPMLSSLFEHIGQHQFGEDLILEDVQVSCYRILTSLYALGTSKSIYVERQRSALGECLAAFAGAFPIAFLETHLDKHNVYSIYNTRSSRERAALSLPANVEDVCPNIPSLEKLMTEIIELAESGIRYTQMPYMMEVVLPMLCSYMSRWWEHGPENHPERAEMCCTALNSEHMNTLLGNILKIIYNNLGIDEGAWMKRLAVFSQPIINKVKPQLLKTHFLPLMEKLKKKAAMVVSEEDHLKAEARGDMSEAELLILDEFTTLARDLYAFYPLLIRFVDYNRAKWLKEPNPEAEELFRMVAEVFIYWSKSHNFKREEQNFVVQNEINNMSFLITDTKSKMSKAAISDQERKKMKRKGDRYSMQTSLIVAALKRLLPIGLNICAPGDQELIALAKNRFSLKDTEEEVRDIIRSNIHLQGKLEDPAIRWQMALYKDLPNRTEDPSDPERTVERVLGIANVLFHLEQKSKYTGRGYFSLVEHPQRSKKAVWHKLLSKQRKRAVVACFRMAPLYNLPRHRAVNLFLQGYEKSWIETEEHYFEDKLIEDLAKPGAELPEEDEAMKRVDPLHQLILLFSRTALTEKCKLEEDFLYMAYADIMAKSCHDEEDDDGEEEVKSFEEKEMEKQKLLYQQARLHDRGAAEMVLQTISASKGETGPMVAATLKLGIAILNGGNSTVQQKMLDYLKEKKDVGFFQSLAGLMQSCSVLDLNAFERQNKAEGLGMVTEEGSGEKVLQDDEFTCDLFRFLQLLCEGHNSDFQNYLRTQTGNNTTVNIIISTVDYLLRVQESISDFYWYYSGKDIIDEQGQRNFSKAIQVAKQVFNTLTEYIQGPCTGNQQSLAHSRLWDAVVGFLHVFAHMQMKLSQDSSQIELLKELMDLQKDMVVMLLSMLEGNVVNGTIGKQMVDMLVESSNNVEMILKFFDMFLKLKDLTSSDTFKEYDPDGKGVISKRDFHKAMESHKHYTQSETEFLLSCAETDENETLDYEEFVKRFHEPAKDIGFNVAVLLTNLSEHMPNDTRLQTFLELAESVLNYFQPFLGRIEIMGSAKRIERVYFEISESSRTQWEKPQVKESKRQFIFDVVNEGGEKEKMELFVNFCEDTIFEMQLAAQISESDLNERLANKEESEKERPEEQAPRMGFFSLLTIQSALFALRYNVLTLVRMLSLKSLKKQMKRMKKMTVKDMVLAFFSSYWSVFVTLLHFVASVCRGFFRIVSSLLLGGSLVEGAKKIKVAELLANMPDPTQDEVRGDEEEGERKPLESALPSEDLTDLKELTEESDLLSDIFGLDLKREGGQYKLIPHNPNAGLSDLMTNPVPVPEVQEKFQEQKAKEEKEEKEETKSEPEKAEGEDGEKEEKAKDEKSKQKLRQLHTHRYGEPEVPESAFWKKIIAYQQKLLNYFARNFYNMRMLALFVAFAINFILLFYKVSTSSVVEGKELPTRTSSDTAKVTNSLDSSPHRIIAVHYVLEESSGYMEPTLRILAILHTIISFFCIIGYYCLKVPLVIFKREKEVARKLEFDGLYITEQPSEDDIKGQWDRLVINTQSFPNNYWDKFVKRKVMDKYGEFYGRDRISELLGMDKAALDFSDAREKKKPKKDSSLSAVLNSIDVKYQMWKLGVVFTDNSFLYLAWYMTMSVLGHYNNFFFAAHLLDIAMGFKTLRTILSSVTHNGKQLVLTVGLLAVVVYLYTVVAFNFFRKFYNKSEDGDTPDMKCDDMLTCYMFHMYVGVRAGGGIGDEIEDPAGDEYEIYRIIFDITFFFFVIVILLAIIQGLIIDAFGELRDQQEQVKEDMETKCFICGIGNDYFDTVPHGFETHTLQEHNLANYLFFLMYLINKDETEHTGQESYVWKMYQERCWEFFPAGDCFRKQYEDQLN
Description: Mouse ventricular cardiomyocytes were isolated enzymatically from hearts of male C57BL/6J mouse (10–12 weeks old, Jackson Laboratory) as previously described with minor modifications ([66]). Briefly, mice were injected with heparin (500 U/kg body weight) and anesthetized with isoflurane (2 to 5%) to a verified deep surgical plane, whereupon the heart was excised, resulting in euthanasia by exsanguination. Hearts were excised and retrogradely perfused with constant flow on a Langendorff apparatus (37 °C) with Ca^2+-free normal Tyrode’s solution, gassed with 100% O2. Collagenase type II (Worthington Biochemical Co) and protease type XIV (Sigma-Aldrich) were used for enzymatic digestion. Ventricular cardiomyocytes were then mechanically dissociated and filtered through a nylon mesh and allowed to sediment in Tyrode’s solution. The [Ca^2+] of the Tyrode’s solution was then raised to 0.5 mM in stepwise fashion, and cardiomyocytes were kept at room temperature in this solution until use. All animal handling and laboratory procedures were in accordance with the approved protocols of the University of California, Davis Institutional Animal Care and Use Committee conforming to the Guide for the Care and Use of Laboratory Animals published by the US National Institutes of Health (eighth edition, 2011).
Ca^2+ activity was imaged via confocal microscopy (Bio-Rad, Radiance 2100, 40× objective) in the line scan mode (166 lines/s; ex 488 nm, em >505 nm). Ca^2+ sparks were recorded from ventricular cardiomyocytes permeabilized with saponin (50 μg/ml) for 1 min in internal solution containing (in mM) 10 HEPES, 1 EGTA, 1 free MgCl2 (with free [Ca^2+] adjusted to 50 nM using MaxChelator), 120 K-aspartate, 10 reduced glutathione, 5 ATP, 5 phosphocreatine di-Na, creatine phosphokinase 5 U/ml, and dextran (MW: 40,000) 8% at pH 7.20. Cardiomyocytes were immediately washed with saponin-free internal solution and then superfused with internal solution (50 nM Ca^2+free) containing the Ca^2+-sensitive indicator, Fluo-4 pentapotassium salt (10 μM, Invitrogen). Ca^2+ spark parameters were analyzed over a 10 s period from each line scan recording. Ca^2+ transients and diastolic Ca^2+ release events were recorded from intact ventricular cardiomyocytes loaded for 30 min at room temperature with Fluo-4 AM (10 μM, Invitrogen) and Pluronic F-127 (0.02%, Invitrogen) followed by wash and de-esterification for 30 min in Tyrode’s solution containing (in mM) NaCl 140, KCl 4, CaCl2 1.8, MgCl2 1, HEPES 5, Na-HEPES 5, and glucose 5.5 at pH 7.40. To evoke Ca^2+ transients, intact cardiomyocytes were paced at 1 Hz in a field stimulation chamber (Warner Instruments) at room temperature. Ca^2+ activity was assessed in paired fashion before and after incubating cardiomyocytes with fusidic acid (FA) for 6 min at each concentration. ImageJ was used for image processing and analysis, and Ca^2+ sparks were analyzed using the SparkMaster plugin ([67]). Chemical reagents were purchased from Sigma-Aldrich unless indicated otherwise.
Statistical analyses were performed using GraphPad Prism 9. Normality was verified using the D’Agostino & Pearson test. Repeated measures (at different FA concentrations) one-way ANOVA with Geisser–Greenhouse correction followed by the Dunnett’s multiple comparison post-hoc test was used for normally distributed data to determine individual differences in matched responses. […]

[3] = single-cycle kinetics, global analysis

CC(=O)O[C@H]1C[C@@]2(C)[C@@H](C[C@@H](O)[C@H]3[C@@]4(C)CC[C@@H](O)[C@@H](C)[C@@H]4CC[C@@]32C)/C1=C(\CCC=C(C)C)C(=O)O [FA, (2Z)-2-[(3R,4S,5S,8S,9S,10S,11R,13R,14S,16S)-16-acetyloxy-3,11-dihydroxy-4,8,10,14-tetramethyl-2,3,4,5,6,7,9,11,12,13,15,16-dodecahydro-1H-cyclopenta[a]phenanthren-17-ylidene]-6-methylhept-5-enoic acid]
KD (SPR) ([1]; NTR with His-MBP tag): low micromolar
KD (SPR), another component of heterogenous model fit [1, 3]: nanomolar
KD (SPR), one component of heterogenous model fit [1, 3]: micromolar
Ca2+ spark signal mass relative to 0 nM FA ([2]; 1 μM FA, p = 0.011): decreased significantly
Ca2+ spark signal mass relative to 0 nM FA ([2]; 10 μM FA, p = 0.001): decreased significantly
Ca2+ spark frequency over [FA] relative to 0 nM FA ([2]; [Ca2+]i 50 nM, 6 min exposures): did not detect significant differences
Ca2+ spark signal mass, meancell slope ([2]; increasing [FA], p = 0.0007): −0.336 F/F0 × μm × s/log10(μM)
Ca2+ spark frequency, meancell slope ([2]; increasing [FA], p = 0.115): −0.082 sparks/100 μm/s/log10(μM)
